Assay results published in patent US8575089B2, “Composition for preventing or treating inflammation” (University-Industry Cooperation Group of Kyung Hee, priority 2009, dated 2013).
Where no end group is shown, it is not given here.

What was measured:
[1] = tested on: CD11b+ macrophage isolated from peripheral blood; test: IL-6 and IL-10 expression (ELISA) in CD11b+ macrophages treated with SP; type: cell-based, C57b1/6 mice; conditions: CD11b+ macrophage in macrophage activation media; SP as Example 1-(1); 4.5, 10, 24 hours; FIG. 3
Method: [The procedure below names another cell line; the source says it served here with some conditions changed.] Peripheral blood was collected from C57b1/6 mice (8 weeks, sex; male, n=5, Average Weight; 20 g), diluted doubly with PBS, carefully placed on Ficoll in a tube, and then centrifuged at 2200 rpm for 20 minutes. By centrifuging, from the bottom, an erythrocyte layer, a ficoll layer, a mononuclear cell layer, and a plasma layer were obtained in order. The mononuclear cell layer and plasma layer were isolated, excluding the erythrocyte layer and ficoll layer, and then washed one time with PBS. Then, the number of cells was counted; the cells with a concentration of 1×10^5/0.2 ml were seeded onto T-cell activation media (lymphocyte activation media; RPMI, 10% FBS, 100 μM 2-mercaptoetanol, 20 μg/ml ConA); then the cells were cultured at an incubator of 37° C.; and then culture supernatant was taken at 4.5 hours, 10 hours, and 24 hours. For SP-treated group, 10 nmole/kg of SP dissolved in a physiological saline was treated to T-cell activation media. […] After 30 minutes, 100 μl of stop codon was treated to stop the reaction; the optical density was measured at 450 nm; the amounts of cytokines were converted based on a protein conversion formula by a standard sample; and then the results were shown in FIG. 1. […]

[2] = tested on: regulatory T cells (CD4+, FoxP3+) and anti-inflammatory macrophage M2 (CD11b+, CD206+); test: Radiation-irradiating model: FACS of regulatory T cells and macrophage M2 in mesentric lymph nodes and small intestine; type: in vivo, C57b1/6 mice; conditions: mice, 8 Gy, SP i.v., 4.5 hours after irradiation
Method: 5 nmole/kg of SP dissolved in a physiological saline was injected to a tail vein of C57b1/6 mice (8 weeks, sex; male, n=4, Average weight; 20 g) one day before irradiation and immediately after irradiation. The irradiation was performed at 8 Gy radiation in a Gamma lay radiation irradiator (^137Cs, Atomic Energy of Canada, Mississauga, Canada). The mice were sacrificed at 4.5 hours and one day after irradiation, and then the blood was collected. The part of the blood was used for analyzing CBC (Complete Blood Count) and the remaining blood was used to isolate serum and then analyze cytokines
The mice were sacrificed at 4.5 hours after irradiation using the same method as Example 3; mesentric lymph nodes were taken for isolating mononuclear cells; then isolated mononuclear cells were fixed at 3.7% formalin for 1 hour; and then anti-inflammatory-related T cells and macrophages were analyzed through FACS (BD FACSCalibur™: 343098, BD Biosciences, Canada) analysis.
Specifically, the mice were sacrificed at 4.5 hours after 8 Gy radiation; the abdomens were cut to open; mesentric lymph nodes and small intestines were taken and then were cut fine; then chopped by using operating scissors; then were treated with collagenase type I (Worthington, USA) and DNase I (Sigma, USA) at 37° C. for 20 minutes; washed, respectively; mononuclear cells were isolated; and then fixed in 3.7% formalin for 1 hour. The mesentric lymph nodes mononuclear cells fixed in formalin were double-stained with CD4 (130-091-608, Miltenyi Biotec, Germany) and FoxP3 (130-093-013, Miltenyi Biotec, Germany) antibody, and then regulatory T cells were analyzed through FACS analysis. In addition, an anti-inflammatory macrophage M2 analysis was performed through FACS analysis after double staining with CD11b (130-081-201, Miltenyi Biotec, Germany) and CD206 (ab64693, abcam, UK) antibody. Since T cells or macrophages in the small intestine mononuclear cells fixed in a formalin accounted for less than 1% of the whole cells, FACS analysis was performed after isolating CD3 (130-092-962, Miltenyi Biotec, Germany)+ cell and CD11b+ cell with MACS isolating method as disclosed in the previous Example 1-(2), respectively. Regulatory T cells were analyzed by double-staining the cells isolated by CD3 with CD4 and FoxP3 antibody and anti-inflammatory macrophage M2 analysis was performed by double-staining the cells isolated by CD11b with CD11b and CD206 antibody.

Substance: Substance-P (RPKPQQFFGLM; not fully specified; ends and bridges not checked; UniProt P20366 58-68, looked up)
- expression level of IL-6 in culture supernatant [1]: no difference
- expression of IL-10 in culture supernatant [1]: increased
- anti-inflammatory macrophage M2 (CD11b+, CD206+) ([2]; mesentric lymph nodes, FIG. 10): increased
- regulatory T cells (CD4+, FoxP3+) ([2]; mesentric lymph nodes, FIG. 10): increased
- anti-inflammatory macrophage M2 (CD11b+, CD206+) ([2]; small intestines, FIG. 11): increased
- regulatory T cells (CD4+, FoxP3+) ([2]; small intestines, FIG. 11): increased
